Values of other authors as cited in patent publication US20100221330A1, “BUOYANT FORMULATIONS OF BETAINE” (priority 2003, published 2010).

Settings: human subjects, betaine supplementation

## C[N+](C)(C)CC(=O)O [betaine]
  Effect on blood pressure: reduces the blood pressure, especially the diastolic pressure
